Assay results as given in patent US20240173432A1, “Compositions and Methods for Treatment of Myotonic Dystrophy Type 1 with CRISPR/SluCas9” (Vertex Pharmaceuticals Incorporated, priority 2021, published 2024).

How the values were obtained:
[1] = tested on: 3′ UTR of the human DMPK gene; assay: Single-cut screening: indel editing efficiency by Sanger sequencing and ICE analysis in primary DM1 patient myoblasts; format: cell-based; details: vehicle-treated samples; for Indel efficiency: single SluCas9 sgRNA RNP in primary DM1 patient myoblasts, Sanger sequencing and ICE analysis
Method: Genomic DNA of DM1 myoblasts was isolated with the Kingfisher Flex purification system (Thermal Fisher) in 96-well format following the manufacturer's instruction. The DMPK 3′ UTR region was amplified using GoTaq Green Master Mix (Promega) and PCR primers flanking the 3′ UTR region. […] Amplification was conducted using the following cycling parameters: 1 cycle at 95° C. for 2 min; 40 cycles of 95° C. for 30 sec, 63° C. for 30 sec, and 72° C. for 90 sec; 1 cycle at 72° C. for 5 min. Only the wild type allele is amplified by the PCR reaction. The PCR products were analyzed on the TapeStation system with High Sensitivity D5000 ScreenTape (Agilent Technologies).
PCR products were purified and sequenced by Sanger sequencing. […] Indel values were estimated using the ICE analysis algorithm (Synthego) with the chromatogram files obtained from Sanger sequencing.
(§1) RNPs were assembled with recombinant SluCas9 protein and chemically modified sgRNAs at a ratio of 1:3 (protein:sgRNA). For SINGLE-cut screening, RNP complexes were assembled with 30 pmol of SluCas9 and 90 pmol of sgRNA in P5 Primary Cell Nucleofector Solution (Lonza). After incubation at room temperature for 20 minutes, 10 μL of RNP complex were mixed with two hundred thousand of primary myoblasts resuspended in 10 μL of P5 Nucleofector Solution. For DOUBLE-cut screening, RNP complexes were first assembled for individual sgRNAs with 20 pmol of SluCas9 protein and 60 pmol of sgRNAs in 5 μL of P5 Nucleofector Solution. After incubation at room temperature for 20 minutes, the two RNP complexes (one for upstream sgRNA and one for downstream sgRNA) were mixed at 1:1 ratio and then further mixed with two hundred thousand of primary myoblasts resuspended in 10 μL of P5 Nucleofector Solution.
The Nucleofector 96-well Shuttle System (Lonza) was used to deliver the SluCa9/sgRNA RNPs into primary DM1 patient myoblasts using the nucleofection program CM138. […] 72 hrs post nucleofection, two wells of DMSO-treated myoblasts and two wells of DNA-PKi-treated myoblasts from each nucleofection were harvested for genomic DNA extraction using the Kingfisher Flex purification system (Thermal Fisher), whereas one well of DMSO-treated myoblasts and one well of DNA-PKi-treated myoblasts were stained for RNA foci by FISH staining.
To assess the efficiency of individual SluCas9 sgRNAs for inducing indel editing and CTG repeat excision, single-cut screening was performed in which individual SluCas9 sgRNAs and recombinant SluCas9 protein were assembled into ribonucleoprotein (RNP) and delivered into primary DM1 patient myoblasts. […] Seventy-two (72) hrs post nucleofection, myoblasts were subjected to either genomic DNA isolation or RNA foci staining by fluorescence in situ hybridization (FISH).
Sanger sequencing and ICE analysis were then performed to quantify the frequency of indels induced by individual sgRNAs. It is of note that only the vehicle-treated samples were used for ICE analysis.
Editing efficiency was assessed by Sanger sequencing and ICE analysis. […] The * indicates the sgRNAs with R2<0.9 in the ICE analysis (in-house QC standard for reliable ICE analysis).

[2] = tested on: CUG foci in primary DM1 patient myoblasts; assay: Single-cut screening: FISH staining of CUG RNA foci; format: cell-based, human; details: single sgRNA, primary DM1 patient myoblasts; for % of CUG foci free nuclei (DNA-PKi): DNA-PKi treated
Method: Primary healthy myoblasts (P01431-18F) and DM1 patient myoblasts (03001-32F) were obtained from Cook MyoSite. Myoblasts were cultured in myoblast growth medium consisting of Myotonic Basal Medium (Cook MyoSite, MB-2222) and MyoTonic Growth Supplement (Cook MyoSite, MS-3333). Three days before nucleofection, primary human myoblasts were further purified with EasySep Human CD56 Positive Selection Kit II (StemCell Tech, 17855) following the manufacturer's instruction, and then maintained in myoblast growth medium until nucleofection.
as §1
The Nucleofector 96-well Shuttle System (Lonza) was used to deliver the SluCa9/sgRNA RNPs into primary DM1 patient myoblasts using the nucleofection program CM138. Following nucleofection, myoblasts from each well of nucleofection shuttle were split into six wells of the 96-well cell culture plate (Greiner, 655090) coated with matrigel. The first three wells were treated with DMSO for 48 hrs before changing to fresh myoblast growth medium, and the other three wells were treated with 3 μM of DNA-PKi Compound 6 for 48 hrs before changing to fresh myoblast growth medium. 72 hrs post nucleofection, two wells of DMSO-treated myoblasts and two wells of DNA-PKi-treated myoblasts from each nucleofection were harvested for genomic DNA extraction using the Kingfisher Flex purification system (Thermal Fisher), whereas one well of DMSO-treated myoblasts and one well of DNA-PKi-treated myoblasts were stained for RNA foci by FISH staining.
(§2) Primary myoblasts were fixed for 15 min with 4% paraformaldehyde (PFA) and washed five times with 1×PBS for 10 min each at room temperature. Before staining, cells were permeabilized with 0.5% triton X-100 in 1×PBS for 5 min at room temperature, and then washed with 30% formamide and 2× saline-sodium citrate (SSC) mixture for 10 min at room temperature. Cells were then stained with 1 ng/μL of Cy3-PNA(CAG)5 probe (PNA Bio, F5001) diluted in 30% formamide, 2×SSC, 2 μg/mL BSA, 66 μg/mL yeast tRNA, and 2 mM vanadyl complex for 15 min at 80° C. Following probe staining, cells were then washed in 30% formamide and 2×SSC mixture for 30 min at 42° C., then washed in 30% formamide and 2×SSC mixture for 30 min at 37° C., and then washed in 1×SSC solution for 10 min at room temperature, and finally washed in 1×PBS for 10 min at room temperature. Cells were next stained with anti-MBNL1 antibody (Santa Cruz, 3A4) diluted in 1% bovine serum albumin (BSA) for overnight at 4° C., and washed twice with 1×PBS for 10 min each at room temperature. Cells were then incubated with the secondary antibody goat anti-rabbit Alexa 647 (Thermo Fisher, A32728) diluted in 1% BSA for 1 hr at room temperature, and washed twice with 1×PBS for 10 min each at room temperature. Next, cells were stained with Hoechst solution (Thermo Fisher, H3569) at 0.1 mg/ml for 5 min, and washed once with 1×PBS for 5 min. PBS was aspirated and fresh 100 μl of fresh PBS is added to each well. High-throughput acquisition of images was completed with the ImageXpress Micro Confocal High-Content Imaging System (Molecular Devices).

[3] = tested on: CAG foci in primary DM1 patient myoblasts; assay: Single-cut screening: CAG foci staining; format: cell-based, human; details: single sgRNA; for % of CAG foci positive nuclei (DNA-PKi): DNA-PKi treated
Method: as §2, with “Devices). RNA foci quantifications were accomplished with a customized analysis module of the MetaXpress program (Molecular Devices).” for “Devices).”
In addition to CUG foci staining, CAG foci staining was also performed, which is formed either by antisense transcript emanating from the downstream SIX5 gene or by the inversion of the CTG repeat sequence induced by individual SuCas9 sgRNAs.

Row | Substance | Indel efficiency [1] [%] | % of CUG foci free nuclei (DNA-PKi) [2] [%] | % of CUG foci free nuclei (Vehicle) [2] [%] | % of CAG foci positive nuclei (DNA-PKi) [3] [%] | % of CAG foci positive nuclei (Vehicle) [3] [%] | indel efficiency (Sanger sequencing and ICE analysis) ([1]; single-cut, SluCas9 RNP, 72 hrs post nucleofection, wild-type allele)
1 | ATAAATATCCAAACCGCCGAAG (guide RNA; chemistry not fully specified) [SluD63] | 6 | 19.22 | 9.09 | 2.95 | 0.85 | 
2 | ATCCGGGCCCGCCCCCTAGCgg (guide RNA; as printed in the source, key not given here) [SluU35] | 25 | 55.71 | 14.23 | 1.42 | 0.69 | 
3 | ATTTCTTTCTTTCGGCCAGGCT (guide RNA; chemistry not fully specified) [SluD03] | 2 | 49.43 | 14.38 | 2.14 | 1.19 | 
4 | CAAAACGTGGATTGGGGTTGTT (guide RNA; chemistry not fully specified) [SluD72] | 5 | 28.82 | 16.2 | 2.33 | 2.62 | 
5 | CAAACCGCCGAAGCGGGCGGAG (guide RNA; chemistry not fully specified) [SluD61] | 2 | 26.76 | 17.04 | 1.94 | 1.27 | 
6 | CAACGATAGGTGGGGGTGCGTG (guide RNA; chemistry not fully specified) [SluD23] | 48 | 64.98 | 19.61 | 4.37 | 3.33 | 
7 | CACCCCCGACCCTCGCGAATAA (guide RNA; chemistry not fully specified) [SluD90] | 2 | 23.81 | 7.35 | 1.27 | 0.86 | 
8 | CACTCAGTCTTCCAACGGGGCC (guide RNA; chemistry not fully specified) [SluU07] | 57 | 51.08 | 26.22 | 1.27 | 2.36 | 
9 | CACTTTGCGAACCAACGATAGG (guide RNA; chemistry not fully specified) [SluD27] | 8 | 20.28 | 7.6 | 1.4 | 0.93 | 
10 | CAGCGCAAGTGAGGAGGGGGGC (guide RNA; chemistry not fully specified) [SluD46] | 46 | 34.71 | 8.24 | 1.16 | 1.69 | 
11 | CAGGCTGAGGCCCTGACGTGGA (guide RNA; chemistry not fully specified) [SluD07] | 28 | 29.79 | 12.52 | 0.82 | 2.37 | 
12 | CAGTGCATCCAAAACGTGGATT (guide RNA; chemistry not fully specified) [SluD75] | 17 | 22.6 | 11.9 | 1.9 | 1.56 | 
13 | CAGTTCACAACCGCTCCGAGCG (guide RNA; chemistry not fully specified) [SluU23] | 5 | 29.8 | 11.23 | 1.53 | 1 | 
14 | CCAAAACGTGGATTGGGGTTGT (listed as DNA, chemistry not fully specified) [SluD73] | 65 | 32.52 | 12.95 | 2.33 | 2.52 | high editing IN4DEL efficiency
